Assay results: patent US20040048262A1, “Methods for determining the bilogical effects of compounds on gene expression” (priority 2003, published 2004)

Tested on: PC12 cells
Assay: Transcription factor DNA-binding activity profile, nuclear extracts of NGF-treated PC12 cells, random 16-mer library (FIG. 2)
Format: cell-based
Conditions: 200 ng/ml NGF-beta, 5 hr, vs untreated
From the text: FIG. 2 is a bar graph showing the effects of nerve growth factor (NGF) treatment on transcription factor DNA-binding activities in PC12 cells. The identity of the specific transcription factors whose binding activity is being detected are listed on the X-axis. The level of DNA binding activity for each individual transcription factor is depicted as a percentage of the total number of DNA fragments sequenced from the “bound” fraction of the DNA library used in the binding reactions and containing the cognate site for that particular protein (shown as a numerical value on the Y-axis). The level of binding activities for all the proteins detected as a result of their cognate binding sites being found in the “bound” fraction of the DNA library constitutes the transcription factor activity profiles for PC12 cells and PC12 cells following NGF treatment. The profiles generated provide a useful indicator of the mechanism of action of the compound being used for the cell treatrment. For example, if the mechanism of action of NGF was to increase the expression of a particular cell surface receptor, then one would expect to see altered levels of binding activities for those transcription factors known to regulate the expression of the gene that encodes that particular receptor in the NGF-treated sample. If one did indeed see altered binding activity levels of factors known to regulate a particular receptor gene or set of genes, then one could immediately assay for those changes in gene expression as a result of inference from the transcription factor activity profile.
In a specific example, PC12 cells were grown in high glucose DMEM containing 10% horse serum and 5% fetal calf serum. For differentiation, cells were transferred to serum-free medium containing N-2 Supplement (Life Technologies) and 200 ng/ml Nerve Growth Factor-beta (Sigma). Cells were harvested after 5 hr and nuclear extracts were prepared as described above. A positive response of the PC12 cells to NGF was monitored by EMSA of AP-1 activity.
In this example, nuclear extracts were incubated with a random 16-mer library and the DNA present in specific protein/DNA complexes was isolated and sequenced. Known transcription factor binding sites present in the DNA sequences were counted as described in Example 1 and the data generated are presented in FIG. 2 in the same mainer as in Example 2. Thus, the bars indicate the percentage of DNA fragments containing selected cis sites that were isolated in binding reactions containing nuclear extracts from either untreated (white bars) or NGF-treated (black bars) PC12 cells. It can be seen that NGF-treatment leads to an increase in binding activity for AP 1, ATF, TCF11 (among others), while for example E2F and RFX1 activities are reduced after NGF treatment.

NGF: Nerve Growth Factor-beta (Sigma)
change in E2F activity after NGF treatment: reduced
change in RFX1 activity after NGF treatment: reduced
change in binding activity for AP 1 after NGF treatment: increase
change in binding activity for ATF after NGF treatment: increase
change in binding activity for TCF11 after NGF treatment: increase
